Experimental data from US20240197652A1, “KETAMINE IN THE TREATMENT OF […]” (Awakn LS Europe Holdings Limited, priority 2021, published 2024).

Tests used:
Assay type in all cases: in vivo, human
Settings in all cases: analyte = label; for peak plasma concentration: 100 mg racemic ketamine sublingual; for time of peak plasma concentration: post-administration of 100 mg racemic ketamine sublingual
[1] = Plasma ketamine, HNK and norketamine levels, gambling disorder subjects (Example 7)
Description: A study was completed on the use of ketamine to treat gambling disorder. Subjects were assessed for gambling disorder using the PGSI. Subjects were included if they received a PGSI score greater than 3. Five subjects in total were included (G1-G5). All five subjects were administered ketamine. Blood samples were collected from all five subjects. Blood samples were analysed to determine ketamine and ketamine metabolite levels, and each subject was assessed post-administration to determine the effectiveness of the treatment.
On Day 3, each subject returned on-site and was administered ketamine. 100 mg of racemic ketamine was administered in as sublingual lozenges.
Blood samples were collected every 10 minutes, from 0 minutes (the time of administration) to 90 minutes post-administration. Blood samples at each time point were analysed to determine plasma levels of (2S,6S;2R,6R)-Hydroxynorketamine (HNK).

[2] = Plasma ketamine, HNK and norketamine levels, binge eating disorder subjects (Example 8)
Description: A study was completed on the use of ketamine to treat binge eating disorder. Subjects were assessed for binge eating disorder using the Binge Eating Scale (BES), and included if they received a BES score greater than 15. Three subjects in total were included (BE1-BE3, and interchangeably on FIGS. 5 and 6 as BED1-BED3, these being the same subjects). All three were administered sublingual lozenges comprising 100 mg of racemic ketamine.
Blood samples were collected from all three subjects. Blood samples were analysed to determine ketamine and ketamine metabolite levels, as well as the hormones leptin and ghrelin. Self-report measures were conducted.
The treatment protocol commenced in substantially the same way as disclosed in the ketamine in subjects with gambling disorder study completed in EXAMPLE 7, with the exceptions outlined as follows: No behavioural tasks were completed. Blood samples collected every 10 minutes from the time of administration to 90 minutes post-administration were additionally analysed for leptin and ghrelin. Self-report measures included the Binge Eating Scale, the Adult Attachment Interview (AAI), a 20 question interview about the subject's recollections of their childhood (Sykes and Turner, 2015); the Childhood Trauma Questionnaire; the Morningness-Eveningness Questionnaire (MEQ), a 19-item questionnaire designed to assess when a respondent prefers to wake up or start sleep (American Thoracic Society, 2022); the DSM-5 Binge Eating Disorder diagnostic criteria; and the SPSRQ.

[3] = Plasma ketamine, HNK and norketamine levels, gaming disorder subjects (Example 9)
Description: A study was completed on ketamine to treat gaming disorder. Subjects were assessed for gaming disorder using the Internet Gaming Disorder Scale (IGDS) and were included if they received an IGDS score greater than 3. Three subjects in total were included (IG1-IG3). All three were administered sublingual lozenges comprising 100 mg of racemic ketamine.
(§1) Blood samples were collected from all three subjects. Blood samples were analysed to determine ketamine and ketamine metabolite levels. Assessments were conducted as below.
The treatment protocol commenced in the same manner as disclosed in the ketamine in subjects with gambling disorder study completed in EXAMPLE 7, with the exceptions as follow: No behavioural tasks were completed. Self-report measures completed during EXAMPLE 9 included Social Phobia Inventory (SPIN), the Craving for Gaming Questionnaire (CGQ), and Generalised Anxiety Disorder-7 (GAD-7) the Sensitivity to Reward and Punishment Scale, and the Childhood Trauma Questionnaire, the Morningness-Eveningness Questionnaire (MEQ).

[4] = Plasma ketamine, HNK and norketamine levels, CSBD subjects (Example 10)
Description: A study was completed on the use of ketamine to treat CSBD. Subjects were assessed for CSBD using the Problematic Pornography Use Scale (PPUS) and were included if they received an PPUS score greater than 3. Three subjects in total were included (CSB1-CSB3). All three were administered sublingual lozenges comprising 100 mg of racemic ketamine.
as §1
The treatment protocol commenced in the same way as disclosed in the ketamine in subjects with gambling disorder study completed in EXAMPLE 7, with the exceptions outlined as follows: No behavioural tasks were completed. Self-report measures completed during EXAMPLE 10 included the Emotional Intimacy Measure, the Childhood Trauma Questionnaire, the Generalised Anxiety Disorder-7 (GAD-7), the Morningness-Eveningness Questionnaire (MEQ), and the Problematic Pornography Questionnaire (PPQ), the Acceptance and Action Questionnaire, and the Psychological and Interpersonal Relationship Scales (PAIRS).

[5] = subject BE1 (no data at 30 minutes)

Compound	peak plasma concentration ([1]; subject G1)	time of peak plasma concentration ([1]; subject G1) [min]	peak plasma concentration ([1]; subject G2)	time of peak plasma concentration ([1]; subject G2) [min]	peak plasma concentration ([1]; subject G3)	time of peak plasma concentration ([1]; subject G3) [min]	peak plasma concentration ([1]; subject G4)	time of peak plasma concentration ([1]; subject G4) [min]	peak plasma concentration ([1]; subject G5)	time of peak plasma concentration ([1]; subject G5)	peak plasma concentration [2, 5]	time of peak plasma concentration [2, 5] [min]	peak plasma concentration ([2]; subject BE2)	time of peak plasma concentration ([2]; subject BE2) [min]	peak plasma concentration ([2]; subject BE3)	time of peak plasma concentration ([2]; subject BE3) [min]	peak plasma concentration ([3]; subject IG1)	time of peak plasma concentration ([3]; subject IG1) [min]	peak plasma concentration ([3]; subject IG2)	time of peak plasma concentration ([3]; subject IG2) [min]	also measured
NC1(c2ccccc2Cl)CCCCC1=O (racemic) [Norketamine, (R,S)-norketamine]	about 592 ng/ml	80	about 1,450 ng/ml	70	about 574 ng/ml	80	about 495 ng/ml	90	about 1,079 ng/ml	about 90 minutes	about 81 ng/ml	90	about 685 ng/ml	40	about 975 ng/mL	60	about 627 ng/ml	70	about 1,040 ng/ml	50	peak plasma concentration ([3]; subject IG3): about 1,116 ng/mL; time of peak plasma concentration ([3]; subject IG3): 60 min; peak plasma concentration ([4]; subject CSB1): about 1,069 ng/ml; time of peak plasma concentration ([4]; subject CSB1): 80 min; peak plasma concentration ([4]; subject CSB2): about 785 ng/ml; time of peak plasma concentration ([4]; subject CSB2): 70 min; peak plasma concentration ([4]; subject CSB3): about 923 ng/mL; time of peak plasma concentration ([4]; subject CSB3): 70 min
CNC1(c2ccccc2Cl)CCCCC1=O (racemic) [ketamine, 2-(2-chlorophenyl)-2-(methylamino)-cyclohexanone]	about 250 ng/ml	30	about 405 ng/ml	70	about 395 ng/ml	80	about 291 ng/ml	80	about 426 ng/ml	about 20 minutes	about 270 ng/ml	20	about 339 ng/ml	20	about 208 ng/mL	60	about 390 ng/ml	50	about 301 ng/ml	50	peak plasma concentration ([3]; subject IG3): about 670 ng/mL; time of peak plasma concentration ([3]; subject IG3): 50 min; peak plasma concentration ([4]; subject CSB1): about 368 ng/ml; time of peak plasma concentration ([4]; subject CSB1): 70 min; peak plasma concentration ([4]; subject CSB2): about 285 ng/ml; time of peak plasma concentration ([4]; subject CSB2): 30 min; peak plasma concentration ([4]; subject CSB3): about 395 ng/mL; time of peak plasma concentration ([4]; subject CSB3): 50 min
N[C@@]1(c2ccccc2Cl)CCC[C@@H](O)C1=O [HNK, (2S,6S;2R,6R)-hydroxynorketamine]	about 300 ng/ml	80	about 319 ng/ml	70	about 175 ng/ml	90	about 134 ng/ml	90	about 615 ng/ml	about 60 minutes	about 53 ng/ml	90	about 108 ng/ml	80	about 244 ng/mL	90	about 287 ng/ml	90	about 279 ng/ml	90	peak plasma concentration ([3]; subject IG3): about 407 ng/mL; time of peak plasma concentration ([3]; subject IG3): 60 min; peak plasma concentration ([4]; subject CSB1): about 136 ng/ml; time of peak plasma concentration ([4]; subject CSB1): 80 min; peak plasma concentration ([4]; subject CSB2): about 135 ng/ml; time of peak plasma concentration ([4]; subject CSB2): 90 min; peak plasma concentration ([4]; subject CSB3): about 314 ng/mL; time of peak plasma concentration ([4]; subject CSB3): 70 min
